Experimental data published in the NIST ThermoML archive (doi:10.1021/je034036t).

Settings: Liquid, Pulse-echo method

COCCOCCOCCOCCOC [2,5,8,11,14-pentaoxapentadecane]
speed of sound [m/s]
Settings	293.15 K	303.15 K	313.15 K	323.15 K	333.15 K	343.15 K	353.15 K
100 kPa	1400.2	1361.6	1324.5	1288	1252	1216.6	1181.6
10000 kPa	1439.3	1402.8	1367	1332.1	1297.9	1264.2	1231.2
20000 kPa	1477.3	1441.7	1407.3	1373.8	1340.7	1308.6	1276.9
30000 kPa	1512.3	1478.2	1444.9	1412.5	1380.8	1349.9	1319.8
40000 kPa	1546.2	1513	1480.9	1449.5	1418.3	1388.8	1359.8
50000 kPa	1578.2	1546.1	1514.8	1484.2	1454.2	1425.3	1397.1
60000 kPa	1609.1	1577.7	1547.2	1517.4	1488.4	1460.1	1432.8
70000 kPa	1638.4	1607.6	1578.1	1548.8	1520.7	1493.1	1466.5
80000 kPa	1666.8	1637	1607.8	1579.3	1551.9	1524.7	1498.9
90000 kPa	1694.2	1664.9	1636.4	1608.6	1581.5	1555.3	1529.8
100000 kPa	1720.6	1692	1663.9	1636.7	1610.2	1584.4	1559.5

COCCOCCOCCOC [2,5,8,11-tetraoxadodecane]
speed of sound [m/s]
Settings	293.15 K	303.15 K	313.15 K	323.15 K	333.15 K	343.15 K	353.15 K
100 kPa	1361.9	1323.2	1285.1	1247.7	1210.9	1174.6	1138.7
10000 kPa	1403.1	1366.5	1330	1294.6	1259.5	1225.1	1191.5
20000 kPa	1442.5	1407.2	1372.2	1338.5	1304.8	1272	1240
30000 kPa	1479.3	1445.2	1411.8	1379.1	1346.9	1315.6	1284.6
40000 kPa	1514.7	1481.6	1448.8	1417.3	1386.3	1356.2	1326.2
50000 kPa	1547.8	1515.7	1484.1	1453.6	1423.4	1394.1	1365.6
60000 kPa	1579.5	1548.2	1517.5	1487.9	1458.8	1430.3	1402.4
70000 kPa	1610	1579.4	1549.7	1520.7	1492.1	1464.6	1437.6
80000 kPa	1639.3	1609.3	1580.3	1552	1524.3	1497.2	1470.9
90000 kPa	1667.4	1638.2	1609.9	1581.9	1554.8	1528.4	1502.6
100000 kPa	1694.6	1665.9	1638.1	1610.8	1584.3	1558.5	1533.4
